Laboratory results published in US20250387375A1, “SOFALCONE DERIVATIVES AND MEDICAL USE THEREOF” (KAOHSIUNG MEDICAL UNIVERSITY, priority 2024, published 2025).

Key:
Type in all cases: cell-based
[1] = system: human platelet suspension (platelet aggregation caused by collagen); assay: Platelet aggregation reaction test, collagen-induced; conditions: read-out: Collagen IC 50
Method: (§1) Blood samples were collected from healthy donors, and acid-citrate-dextrose (ACD) solution was used as an anticoagulant. The blood samples were centrifuged to obtain platelets, and residual plasma was removed by washing to prepare platelet suspension.
(§2) In the experimental method, a platelet aggregometer (Chrono-Log Co., Havertown, PA, USA) was used for tests. The compound to be tested was added to the platelet suspension and reacted for 3 minutes at 37° C. with stirring (1200 rpm). Then, platelet stimulator U46619 or collagen was added to initiate platelet aggregation, and the test time was 5 minutes. The principle of the platelet aggregation test was: when platelets were stimulated to induce aggregation reaction, the light transmission of the platelet suspension would increase; by calculating changes in light transmission of the platelet suspension before and after being stimulated, the percentage of platelet aggregation could be obtained.

[2] = system: PGE2 formation in human platelet suspensions; assay: Measurement of platelet PGE2 level after arachidonic acid; conditions: AA 100 μM; human platelet suspension
Method: (§3) FIGS. 6A and 6B show the effect of sofalcone and its derivatives on TxB2 and PGE2 productions induced by arachidonic acid (AA). […] After human platelet suspension was pretreated with dimethyl sulfoxide (DMSO) or sofalcone (SFC), sofalcone derivative 3, and sofalcone derivative 30, arachidonic acid (100 μM) was added to stimulate the productions of arachidonic acid metabolites TxB2 and PGE2. Data are presented as mean±standard error of the mean (n>5). Compared with the control group, *P<0.05, **P<0.01, ***P<0.001. ASA: Aspirin.
as §1
(§4) The compound to be tested was added to the platelet suspension and reacted for 3 minutes at 37° C. under stirring (1200 rpm), then arachidonic acid (AA) (100 μM) was added to react for 4 minutes, and finally EDTA (5 mM) was added to terminate the reaction. The above sample was centrifuged at 13,000 rpm for 1 minute at 4° C. and the supernatant was collected. The concentrations of TxB2 and PGE2 in the supernatant were measured respectively using enzyme immunoassay kits (TxB2 ELISA kit and PGE2 ELISA kit; Cayman Chemical Company).

[3] = system: human platelet suspension (platelet aggregation caused by TxA2 agonist U46619); assay: Platelet aggregation reaction test, U46619-induced
Method: as §1, §2

[4] = system: TxB2 formation in human platelet suspensions; assay: Measurement of platelet TxB2 level after arachidonic acid; conditions: AA 100 μM; human platelet suspension
Method: as §3, §1, §4

TxA2 receptor = target: T1, TxA2 receptor (Homo sapiens, UniProt P21731); assay: Competitive antagonism of U46619-induced platelet aggregation (U46619 concentration-response curves)
T1 construct: The blood samples were centrifuged to obtain platelets, and residual plasma was removed by washing to prepare platelet suspension; endogenous in cells; host or cells: washed human platelets from healthy donors
T1 sequence (P21731 1-343): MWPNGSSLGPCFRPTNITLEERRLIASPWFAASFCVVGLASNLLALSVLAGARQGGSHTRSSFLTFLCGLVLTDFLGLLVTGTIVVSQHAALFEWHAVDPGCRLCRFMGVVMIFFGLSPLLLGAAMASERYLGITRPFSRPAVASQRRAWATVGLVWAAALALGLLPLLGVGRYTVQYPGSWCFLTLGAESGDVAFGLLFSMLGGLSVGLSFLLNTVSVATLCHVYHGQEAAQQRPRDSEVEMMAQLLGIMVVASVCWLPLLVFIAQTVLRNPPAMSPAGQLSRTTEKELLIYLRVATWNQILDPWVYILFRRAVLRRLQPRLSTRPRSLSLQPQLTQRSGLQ
Method: After human platelet suspension was pretreated with dimethyl sulfoxide (DMSO) or sofalcone (SFC) (FIG. 5A), sofalcone derivative 3 (FIG. 5B), and sofalcone derivative 30 (FIG. 5C), different concentrations of U46619 (0.1-10 μM) were added to stimulate platelet aggregation reaction. Data are presented as mean±standard error of the mean (n=5).
as §1, §2
After pretreating human platelet suspensions with dimethylsulfoxide (DMSO), sofalcone (20 μM and 50 μM), and sofalcone derivatives 3 or 30 (0.2 μM and 0.5 μM, respectively), different concentrations of U46619 (0.1-10 μM) were added to stimulate platelet aggregation.

[5] = pretreatment 0.2 μM and 0.5 μM, U46619 0.1-10 μM

IC50 [1]	IC50 [3]	SMILES	further results
62.7 µM	51.5 µM	O=C(O)CCCCCOc1ccccc1C(=O)C=Cc1nccs1 [Compound 80]	–
≥ 100 µM	> 100 µM	COC(=O)COc1cc(OCC(=O)c2ccccc2)ccc1C(=O)C=Cc1ccc(OCC(=O)c2ccccc2)cc1 [Compound 82]	–
8.31 µM	8.62 µM	CCOC(=O)COc1ccc(C=CC(=O)c2ccc(OCC(=O)OCC)cc2OCC(=O)OC)cc1 [Compound 83]	–
> 100 µM	> 100 µM	COC(=O)COc1cc(OCc2ccc(F)cc2)ccc1C(=O)C=Cc1ccc(OCc2ccc(F)cc2)cc1 [Compound 86]	–
> 100 µM	> 100 µM	CCCCOc1ccc(C=CC(=O)c2ccc(OCCCC)cc2OCC(=O)OC)cc1 [Compound 90]	–
> 50 µM	> 50 µM	CCCCCCOc1ccc(C=CC(=O)c2ccc(OCCCCCC)cc2OCC(=O)OC)cc1 [Compound 91]	–
63.2 µM	40.7 µM	CCCCOc1ccc(C=CC(=O)c2ccc(OCCCC)cc2OCC(=O)O)cc1 [Compound 94]	–
76.3 µM	36.9 µM	CCCCCCOc1ccc(C=CC(=O)c2ccc(OCCCCCC)cc2OCC(=O)O)cc1 [Compound 95]	–
> 100 µM	> 100 µM	CCCCCCCCOc1ccc(C=CC(=O)c2ccc(OCCCCCCCC)cc2OCC(=O)O)cc1 [Compound 96]	–
3.14 µM	2.42 µM	CC(C)=CCOc1ccc(C=CC(=O)c2ccccc2OCCCCC(=O)O)cc1 [Compound 102]	–
9.08 µM	2.92 µM	O=C(O)CCCCCCOc1ccccc1C(=O)C=Cc1ccccc1 [Compound 105]	–
13.1 µM	2.84 µM	CCOC(=O)CCCCCCCOc1ccccc1C(=O)C=Cc1ccccc1 [Compound 106]	–
3.67 µM	15.3 µM	CCOC(=O)COc1ccccc1C(=O)C=Cc1ccccc1 [Compound 108]	–
0.22 µM	0.16 µM	CCOC(=O)CCCCCOc1ccccc1C(=O)C=Cc1ccccc1 [Compound 111]	–

Continued, compound first:

SMILES	IC50 [1]	IC50 [3]	further results
CC(C)=CCOc1ccc(/C=C/C(=O)c2ccc(OCC=C(C)C)cc2OCCCC(=O)O)cc1 [Compound 30]	0.38 µM	0.04 µM	formation of PGE2 induced by arachidonic acid [2]: did not inhibit; formation of TxB2 induced by arachidonic acid [4]: did not inhibit; mode of action at TxA2 receptor (TxA2 receptor; concluded from parallel right shift of U46619 curves): competitively antagonize; U46619 concentration-platelet aggregation response curve (TxA2 receptor; [5]): shifted parallelly to the right; maximum level of platelet aggregation (TxA2 receptor; [5]): not significantly affected
COC(=O)COc1cc(OCC=C(C)C)ccc1C(=O)CCc1ccc(OCC=C(C)C)cc1 [Compound 74]	> 100 µM	> 100 µM	–
CC(C)=CCOc1ccc(CCC(=O)c2ccc(OCC=C(C)C)cc2OCCCC(=O)O)cc1 [Compound 75]	1.3 µM	0.35 µM	–
CC(C)=CCOc1ccc(CCC(=O)c2ccc(OCC=C(C)C)cc2OCC(=O)O)cc1 [Compound 76]	31 µM	12.6 µM	–
O=C(O)CCCCCOc1ccccc1C(=O)C=Cc1ccccc1 [Compound 77]	43.6 µM	5.54 µM	–
Nc1ccsc1C=CC(=O)c1ccccc1OCCCCCC(=O)O [Compound 78]	7.7 µM	5.87 µM	–
COC(=O)COc1cc(OC(C)=O)ccc1C(=O)C=Cc1ccc(OC(C)=O)cc1 [Compound 81]	23.8 µM	28 µM	–
CCOC(=O)COc1ccc(C=CC(=O)c2ccc(OCC(=O)OCC)cc2OCC(=O)O)cc1 [Compound 84]	> 100 µM	80.8 µM	–
COC(=O)COc1cc(OCc2ccccc2)ccc1C(=O)C=Cc1ccc(OCc2ccccc2)cc1 [Compound 85]	> 100 µM	> 100 µM	–
COC(=O)COc1cc(OCc2ccc(OC)cc2)ccc1C(=O)C=Cc1ccc(OCc2ccc(OC)cc2)cc1 [Compound 87]	> 100 µM	> 100 µM	–
O=C(O)COc1cc(OCc2ccccc2)ccc1C(=O)C=Cc1ccc(OCc2ccccc2)cc1 [Compound 88]	45.1 µM	9.09 µM	–
O=C(O)COc1cc(OCc2ccc(F)cc2)ccc1C(=O)C=Cc1ccc(OCc2ccc(F)cc2)cc1 [Compound 89]	33.9 µM	3.59 µM	–
CCCCCCCCOc1ccc(C=CC(=O)c2ccc(OCCCCCCCC)cc2OCC(=O)OC)cc1 [Compound 92]	> 50 µM	> 50 µM	–
CCCCCCCCCCOc1ccc(C=CC(=O)c2ccc(OCCCCCCCCCC)cc2OCC(=O)OC)cc1 [Compound 93]	> 50 µM	> 50 µM	–
CCCCCCCCCCOc1ccc(C=CC(=O)c2ccc(OCCCCCCCCCC)cc2OCC(=O)O)cc1 [Compound 97]	> 50 µM	> 50 µM	–
CC(C)=CCOc1ccc(C=CC(=O)c2ccccc2OCCCC(=O)O)cc1 [Compound 99]	6.42 µM	3.33 µM	–
CC(C)CCOc1ccc(CCC(=O)c2ccc(OCCC(C)C)cc2OCC(=O)O)cc1 [Compound 100]	66.8 µM	1.73 µM	–
O=C(O)CCCCOc1ccccc1C(=O)C=Cc1ccccc1 [Compound 101]	3.25 µM	3.53 µM	–
CC(C)=CCOc1ccc(C=CC(=O)c2ccccc2OCCCCCC(=O)O)cc1 [Compound 103]	0.38 µM	0.46 µM	–
CCOC(=O)CCCCCCOc1ccccc1C(=O)C=Cc1ccccc1 [Compound 104]	5.31 µM	13.5 µM	–
O=C(O)CCCCCCCOc1ccccc1C(=O)C=Cc1ccccc1 [Compound 107]	8.35 µM	2.49 µM	–
CCOC(=O)CCCOc1ccccc1C(=O)C=Cc1ccccc1 [Compound 109]	4.89 µM	9.56 µM	–
CCOC(=O)CCCCOc1ccccc1C(=O)C=Cc1ccccc1 [Compound 110]	4.48 µM	2.9 µM	–
COC(=O)CCCOc1ccccc1C(=O)C=Cc1ccccc1 [Compound 112]	2.69 µM	13.4 µM	–
COC(=O)CCCCCOc1ccccc1C(=O)C=Cc1ccccc1 [Compound 113]	0.35 µM	0.57 µM	–
CCOC(=O)CCCCCOc1ccccc1C(=O)CCc1ccccc1 [Compound 115]	5.87 µM	0.2 µM	–
O=C(O)CCCCCOc1ccccc1C(=O)CCc1ccccc1 [Compound 116]	4.46 µM	0.2 µM	–
CC1=C(C)C(=O)C(C(CCCCCC(=O)O)c2ccccc2)=C(C)C1=O (centres unmarked) [Seratrodast, reference compound]	5.27 µM	0.71 µM	–
